Results as given in US12344603B2 (Genentech, Inc., priority 2020, dated 2025).
Counter-ions that a name gives are not always drawn.

Each molecule was assayed against IRE1α (Homo sapiens (Human), UniProt O75460, D688N) (assay: IRE1α TR-FRET competition binding assay (IRE1α HTRF)). Details: TR-FRET competition binding to kinase domain of IRE1α.
In short: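 Competition of compounds against an Alexa fluor 647 ATP-site probe (2 nM final) for the His-tagged kinase domain (0.25 nM final), detected via 2 nM Eu anti-His antibody by TR-FRET, 665 and 615 nm emission. Protein–antibody premix 1 h, 4° C; reaction 1 h, room temperature, pH 7.5 HEPES buffer.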

Sequence of IRE1α (O75460 547-977 D688N): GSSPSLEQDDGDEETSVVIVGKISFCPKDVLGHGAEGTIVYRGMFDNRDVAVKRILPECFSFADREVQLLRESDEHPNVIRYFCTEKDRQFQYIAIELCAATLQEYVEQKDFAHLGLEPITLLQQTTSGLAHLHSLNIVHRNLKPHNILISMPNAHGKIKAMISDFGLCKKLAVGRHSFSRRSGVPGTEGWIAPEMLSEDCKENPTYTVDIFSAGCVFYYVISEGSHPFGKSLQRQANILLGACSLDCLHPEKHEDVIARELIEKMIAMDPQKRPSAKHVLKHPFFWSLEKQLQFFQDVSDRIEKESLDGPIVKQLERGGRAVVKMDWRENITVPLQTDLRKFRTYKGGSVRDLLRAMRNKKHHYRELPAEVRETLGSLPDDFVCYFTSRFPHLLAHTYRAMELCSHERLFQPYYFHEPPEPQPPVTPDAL

Row | IC50 [pM] | Structure (SMILES)
1 | 3600 | CC(n1c(=O)c(-c2ccc(NS(=O)(=O)Cc3ccccc3)c(F)c2F)cc2cnc(N[C@@H]3CNC[C@@H](F)C3)nc21)C(F)(F)F (stereo partly drawn) [Compound 42, N-(2,3-difluoro-4-(2-(((3S,5S)-5-fluoropiperidin-3-yl)amino)-7-oxo-8-(1,1,1-trifluoropropan-2-yl)-7,8-dihydropyrido[2,3-d]pyrimidin-6-yl)phenyl)-1-phenylmethanesulfonamide trifluoroacetate salt]
2 | 710 | CC(C)n1c(=O)c(-c2ccc(NS(=O)(=O)Cc3ccccc3)c(F)c2F)nc2cnc(N[C@@H]3CNC[C@@H](F)C3)nc21 [Compound 43, N-(2,3-Difluoro-4-(2-(((3S,5S)-5-fluoropiperidin-3-yl)amino)-8-isopropyl-7-oxo-7,8-dihydropteridin-6-yl)phenyl)-1-phenylmethanesulfonamide]
3 | 280 | CC(C)n1c(=O)c(-c2ccc(NS(=O)(=O)Cc3ccccc3)c(F)c2)nc2cnc(N[C@@H]3CNC[C@@H](F)C3)nc21 [Compound 44, N-(2-Fluoro-4-(2-(((3S,5S)-5-fluoropiperidin-3-yl)amino)-8-isopropyl-7-oxo-7,8-dihydropteridin-6-yl)phenyl)-1-phenylmethanesulfonamide]
4 | 220 | CC(C)n1c(=O)c(-c2cc(F)c(NS(=O)(=O)Cc3ccccc3)c(F)c2)nc2cnc(N[C@@H]3CNC[C@@H](F)C3)nc21 [Compound 45, N-(2,6-Difluoro-4-(2-(((3S,5S)-5-fluoropiperidin-3-yl)amino)-8-isopropyl-7-oxo-7,8-dihydropteridin-6-yl)phenyl)-1-phenylmethanesulfonamide]
5 | 470 | CC(C)n1c(=O)c(-c2cc(F)c(NS(=O)(=O)CCC(F)(F)F)c(F)c2)nc2cnc(N[C@@H]3CNC[C@@H](F)C3)nc21 [Compound 46, N-(2,6-Difluoro-4-(2-(((3S,5S)-5-fluoropiperidin-3-yl)amino)-8-isopropyl-7-oxo-7,8-dihydropteridin-6-yl)phenyl)-3,3,3-trifluoropropane-1-sulfonamide]
6 | 370 | CCn1c(=O)c(-c2cc(F)c(NS(=O)(=O)Cc3ccc(C#N)cc3)c(F)c2F)cc2cnc(N[C@@H]3CNC[C@@H](F)C3)nc21 [Compound 47, 1-(4-cyanophenyl)-N-(4-(8-ethyl-2-(((3S,5S)-5-fluoropiperidin-3-yl)amino)-7-oxo-7,8-dihydropyrido[2,3-d]pyrimidin-6-yl)-2,3,6-trifluorophenyl)methanesulfonamide]
7 | 28000 | CCn1c(=O)c(-c2cc(F)c(NS(=O)(=O)CC3(F)CC3)c(F)c2F)cc2cnc(N[C@@H]3CNC[C@@H](F)C3)nc21 [Compound 48, N-(4-(8-ethyl-2-(((3S,5S)-5-fluoropiperidin-3-yl)amino)-7-oxo-7,8-dihydropyrido[2,3-d]pyrimidin-6-yl)-2,3,6-trifluorophenyl)-1-(1-fluorocyclopropyl)methanesulfonamide]
8 | 5000 | CCn1c(=O)c(-c2cc(F)c(NS(=O)(=O)Cc3ccccn3)c(F)c2F)cc2cnc(N[C@@H]3CNC[C@@H](F)C3)nc21 [Compound 49, N-(4-(8-ethyl-2-(((3S,5S)-5-fluoropiperidin-3-yl)amino)-7-oxo-7,8-dihydropyrido[2,3-d]pyrimidin-6-yl)-2,3,6-trifluorophenyl)-1-(pyridin-2-yl)methanesulfonamide]
9 | 220 | CCn1c(=O)c(-c2cc(F)c(NS(=O)(=O)Cc3ccc(C(F)(F)F)cc3)c(F)c2F)cc2cnc(N[C@@H]3CNC[C@@H](F)C3)nc21 [Compound 50, N-(4-(8-ethyl-2-(((3S,5S)-5-fluoropiperidin-3-yl)amino)-7-oxo-7,8-dihydropyrido[2,3-d]pyrimidin-6-yl)-2,3,6-trifluorophenyl)-1-(4-(trifluoromethyl)phenyl)methanesulfonamide hydrochloride]
10 | 700 | CCn1c(=O)c(-c2cc(F)c(NS(=O)(=O)Cc3c(F)cccc3F)c(F)c2F)cc2cnc(N[C@@H]3CNC[C@@H](F)C3)nc21 [Compound 51, 1-(2,6-difluorophenyl)-N-(4-(8-ethyl-2-(((3S,5S)-5-fluoropiperidin-3-yl)amino)-7-oxo-7,8-dihydropyrido[2,3-d]pyrimidin-6-yl)-2,3,6-trifluorophenyl)methanesulfonamide]
11 | 800 | O=c1c(-c2ccc(NS(=O)(=O)Cc3ccccc3)c(F)c2F)cc2cnc(N[C@@H]3CNC[C@@H](F)C3)nc2n1CC1CC1 [Compound 52, N-(4-(8-(cyclopropylmethyl)-2-(((3S,5S)-5-fluoropiperidin-3-yl)amino)-7-oxo-7,8-dihydropyrido[2,3-d]pyrimidin-6-yl)-2,3-difluorophenyl)-1-phenylmethanesulfonamide trifluoroacetate salt]
12 | 710 | O=c1c(-c2ccc(NS(=O)(=O)Cc3ccccc3)c(F)c2F)cc2cnc(N[C@@H]3CNC[C@@H](F)C3)nc2n1CCF [Compound 53, N-(2,3-Difluoro-4-(8-(2-fluoroethyl)-2-(((3S,5S)-5-fluoropiperidin-3-yl)amino)-7-oxo-7,8-dihydropyrido[2,3-d]pyrimidin-6-yl)phenyl)-1-phenylmethanesulfonamide]
13 | 340 | CC(C)n1c(=O)c(-c2cc(F)c(NS(=O)(=O)c3ccccc3)c(F)c2F)cc2cnc(N[C@@H]3CNC[C@@H](F)C3)nc21 [Compound 54, N-(2,3,6-Trifluoro-4-(2-(((3S,5S)-5-fluoropiperidin-3-yl)amino)-8-isopropyl-7-oxo-7,8-dihydropyrido[2,3-d]pyrimidin-6-yl)phenyl)benzenesulfonamide]
14 | 420 | O=c1c(-c2cc(F)c(NS(=O)(=O)Cc3ccccc3)c(F)c2F)cc2cnc(N[C@@H]3CNC[C@@H](F)C3)nc2n1C1CC(F)(F)C1 [Compound 55, N-(4-(8-(3,3-Difluorocyclobutyl)-2-(((3S,5S)-5-fluoropiperidin-3-yl)amino)-7-oxo-7,8-dihydropyrido[2,3-d]pyrimidin-6-yl)-2,3,6-trifluorophenyl)-1-phenylmethanesulfonamide hydrochloride]
15 | 170 | CC(C)n1c(=O)c(-c2cc(F)c(NS(=O)(=O)Cc3ccccc3)c(F)c2F)cc2cnc(N[C@H]3CC[C@H](N)CC3)nc21 [Compound 56, N-(4-(2-(((1r,4r)-4-Aminocyclohexyl)amino)-8-isopropyl-7-oxo-7,8-dihydropyrido[2,3-d]pyrimidin-6-yl)-2,3,6-trifluorophenyl)-1-phenylmethanesulfonamide]
16 | 140 | COc1ccc(CS(=O)(=O)Nc2c(F)cc(-c3cc4cnc(N[C@@H]5CNC[C@@H](F)C5)nc4n(C(C)C)c3=O)c(F)c2F)cc1 [Compound 57, 1-(4-Methoxyphenyl)-N-(2,3,6-trifluoro-4-(2-(((3S,5S)-5-fluoropiperidin-3-yl)amino)-8-isopropyl-7-oxo-7,8-dihydropyrido[2,3-d]pyrimidin-6-yl)phenyl)methanesulfonamide]
17 | 5700 | CC1CC1C(=O)Nc1c(F)cc(-c2cc3cnc(N[C@H]4CC[C@H](N(C)C)CC4)nc3n(C(C)C)c2=O)c(F)c1F (stereo partly drawn) [Compound 58, (1S,2R)—N-(4-(2-(((1r,4r)-4-(dimethylamino)cyclohexyl)amino)-8-isopropyl-7-oxo-7,8-dihydropyrido[2,3-d]pyrimidin-6-yl)-2,3,6-trifluorophenyl)-2-methylcyclopropane-1-carboxamide]
